In patent US20170037028A1 (BAYER PHARMA AKTIENGESELLSCHAFT, priority 2013, published 2017):

Target: T1, GLUT1 (Homo sapiens, UniProt P11166)
T1 sequence (P11166 1-492): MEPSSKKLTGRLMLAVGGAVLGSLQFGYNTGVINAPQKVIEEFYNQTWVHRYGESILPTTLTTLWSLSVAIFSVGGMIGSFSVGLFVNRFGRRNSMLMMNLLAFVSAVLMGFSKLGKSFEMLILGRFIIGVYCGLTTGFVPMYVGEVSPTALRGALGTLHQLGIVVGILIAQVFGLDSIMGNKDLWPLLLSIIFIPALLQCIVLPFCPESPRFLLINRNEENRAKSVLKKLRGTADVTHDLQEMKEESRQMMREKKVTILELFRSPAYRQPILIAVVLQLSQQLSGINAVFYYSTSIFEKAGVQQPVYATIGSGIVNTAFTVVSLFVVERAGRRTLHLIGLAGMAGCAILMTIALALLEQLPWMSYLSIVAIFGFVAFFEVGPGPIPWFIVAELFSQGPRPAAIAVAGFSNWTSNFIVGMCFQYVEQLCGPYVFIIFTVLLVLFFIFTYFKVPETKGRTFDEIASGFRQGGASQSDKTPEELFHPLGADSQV
Experiment: Indirect measurement of GLUT1 activity by quantification of intracellular ATP levels (glucose induced ATP increase)
Type: cell-based
Design: endogenous in cells; host or cells: DLD1 or CHO-K1
Settings: read-out: IC50 regarding glucose induced ATP increase (GLUT1 inhibition)
Outline: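 DLD1 or CHO-K1 cells were starved overnight in glucose-free medium with 1% FCS, then combined with an oxidative phosphorylation inhibitor. GLUT1 activity was read as glucose-induced ATP increase, GLUT2 as fructose-induced. Intracellular ATP was quantified by CellTiter-Glo luminescence.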

Q: With Cc1nn(Cc2ccc(CC(N)=O)cc2)c(C)c1NC(=O)c1cc(C(F)(F)F)nc2ccc(Br)cc12 [Example 152, N-{1-[4-(2-amino-2-oxoethyl)benzyl]-3,5-dimethyl-1H-pyrazol-4-yl}-6-bromo-2-(trifluoromethyl)quinoline-4-carboxamide] as the molecule, how does the IC50 read?
A: 0.0583 µM

Q: With COc1cccc(Cn2nc(C)c(NC(=O)c3cc(OC)nc4ccccc34)c2C)c1 [Example 81, 2-methoxy-N-[1-(3-methoxybenzyl)-3,5-dimethyl-1H-pyrazol-4-yl]quinoline-4-carboxamide] as the molecule, how does the IC50 read?
A: 0.229 µM

Q: For Cc1nn(Cc2ccc(F)cc2)c(C)c1NC(=O)c1cc(C2CC2)nc2ccc(Br)cc12 [Example 12, 6-bromo-2-cyclopropyl-N-[1-(4-fluorobenzyl)-3,5-dimethyl-1H-pyrazol-4-yl]quinoline-4-carboxamide], which IC50 is on record?
A: 0.0077 µM

Q: Which IC50 does the source give for Cc1nn(Cc2ccc(F)cc2)c(C)c1NC(=O)c1cc(C(F)(F)F)nc2cc(F)ccc12 [Example 29, 7-fluoro-N-[1-(4-fluorobenzyl)-3,5-dimethyl-1H-pyrazol-4-yl]-2-(trifluoromethyl)quinoline-4-carboxamide] here?
A: 0.019 µM

Q: For Cc1nn(Cc2ccc(C(=O)NCc3ccncc3)cc2)c(C)c1NC(=O)c1cc(C(F)(F)F)nc2ccc(Br)cc12 [Example 1021], which IC50 is on record?
A: 0.0023 µM

Q: With Cc1c(NC(=O)c2cc(C(N)=O)nc3cccc(F)c23)c(C(F)(F)F)nn1Cc1ccc(C#N)nc1 [Example 291, N^4-{1-[(6-cyanopyridin-3-yl)methyl]-5-methyl-3-(trifluoromethyl)-1H-pyrazol-4-yl}-5-fluoroquinoline-2,4-dicarboxamide] as the molecule, how does the IC50 read?
A: 0.0069 µM

Q: With CCc1cc(Cn2nc(C(F)(F)F)c(NC(=O)c3cc(C(N)=O)nc4cc(F)c(Cl)cc34)c2C)on1 [Example 410, 6-chloro-N^4-{1-[(3-ethyl-1,2-oxazol-5-yl)methyl]-5-methyl-3-(trifluoromethyl)-1H-pyrazol-4-yl}-7-fluoroquinoline-2,4-dicarboxamide] as the molecule, how does the IC50 read?
A: 0.0089 µM

Q: Cc1nn(Cc2ccc(F)cc2)c(C)c1NC(=O)c1cc(C(N)=O)nc2ccccc12 [Example 122, N^4-[1-(4-fluorobenzyl)-3,5-dimethyl-1H-pyrazol-4-yl]quinoline-2,4-dicarboxamide] was tested. Which IC50 did it give?
A: 0.0019 µM

Q: How did the IC50 turn out when Cc1c(NC(=O)c2cc(C(N)=O)nc3cccc(F)c23)c(C(F)(F)F)nn1Cc1ccc(F)cc1F [Example 1440] was run?
A: 0.0054 µM

Q: Which IC50 does the source give for Cc1cc(Cn2nc(C(F)(F)F)c(NC(=O)c3cc(C(N)=O)nc4cc(F)c(Cl)cc34)c2C)on1 [Example 420, 6-chloro-7-fluoro-N^4-{5-methyl-1-[(3-methyl-1,2-oxazol-5-yl)methyl]-3-(trifluoromethyl)-1H-pyrazol-4-yl}quinoline-2,4-dicarboxamide] here?
A: 0.0049 µM

Q: Which IC50 does the source give for Cc1nn(Cc2ncccc2C#N)c(C)c1NC(=O)c1cc(C(F)(F)F)nc2ccc(Br)cc12 [Example 234, 6-bromo-N-{1-[(3-cyanopyridin-2-yl)methyl]-3,5-dimethyl-1H-pyrazol-4-yl}-2-(trifluoromethyl)quinoline-4-carboxamide] here?
A: 0.0092 µM

Q: With Cc1c(NC(=O)c2cc(C(N)=O)nc3cc(F)ccc23)c(C(F)(F)F)nn1Cc1ccc(C(=O)O)cc1 [Example 368, 4-{[4-{[(2-carbamoyl-7-fluoroquinolin-4-yl)carbonyl]amino}-5-methyl-3-(trifluoromethyl)-1H-pyrazol-1-yl]methyl}benzoic acid] as the molecule, how does the IC50 read?
A: 0.418 µM

Q: Which IC50 does the source give for COc1cc(C#N)ccc1Cn1nc(C(F)(F)F)c(NC(=O)c2cc(C(N)=O)nc3cccc(F)c23)c1C [Example 1647] here?
A: 0.0027 µM

Q: Which IC50 does the source give for COc1cc(C(=O)Nc2c(C)nn(Cc3ccccc3C)c2C)c2ccccc2n1 [Example 51, N-[3,5-dimethyl-1-(2-methylbenzyl)-1H-pyrazol-4-yl]-2-methoxyquinoline-4-carboxamide] here?
A: 0.05 µM

Q: How did the IC50 turn out when Cc1nn(Cc2ccc(C(=O)N3CCCC(O)C3)cc2)c(C)c1NC(=O)c1cc(C(F)(F)F)nc2ccc(Br)cc12 (racemic) [Example 1162] was run?
A: 0.164 µM

Q: With Cc1c(NC(=O)c2cc(C(N)=O)nc3cccc(F)c23)c(C(F)(F)F)nn1Cc1cccc(S(C)(=O)=O)c1 [Example 1639] as the molecule, how does the IC50 read?
A: 0.273 µM

Q: With Cc1nn(Cc2ccc(F)cc2C#N)c(C)c1NC(=O)c1cc(C(N)=O)nc2cccc(F)c12 [Example 1662] as the molecule, how does the IC50 read?
A: 0.004 µM

Q: Cc1nn(Cc2ccc(F)cc2)c(C(=O)N(C)C)c1NC(=O)c1cc(C(F)(F)F)nc2ccc(Br)cc12 [Example 1180] was tested. Which IC50 did it give?
A: 0.231 µM

Q: How did the IC50 turn out when Cc1nn(Cc2ccc(C(=O)NCC3(CO)COC3)cn2)c(C)c1NC(=O)c1cc(C(F)(F)F)nc2ccc(Br)cc12 [Example 1239] was run?
A: 1.47 µM

Q: How did the IC50 turn out when Cc1c(NC(=O)c2cc(C(F)(F)F)nc3ccc(Br)cc23)c(C(F)(F)F)nn1Cc1ccc(C#N)cn1 [Example 362, 6-bromo-N-{1-[(5-cyanopyridin-2-yl)methyl]-5-methyl-3-(trifluoromethyl)-1H-pyrazol-4-yl}-2-(trifluoromethyl)quinoline-4-carboxamide] was run?
A: 0.0055 µM

Q: With Cc1nn(Cc2ccccc2F)c(C)c1NC(=O)c1cc(C(F)(F)F)nc2c(Cl)cc(Cl)cc12 [Example 94, 6,8-dichloro-N-[1-(2-fluorobenzyl)-3,5-dimethyl-1H-pyrazol-4-yl]-2-(trifluoromethyl)quinoline-4-carboxamide] as the molecule, how does the IC50 read?
A: 0.304 µM

Q: Which IC50 does the source give for Cc1c(NC(=O)c2cc(C(N)=O)nc3ccc(S(N)(=O)=O)cc23)c(C(F)(F)F)nn1Cc1ccc(C#N)cc1 [Example 1382] here?
A: 5.37 µM

Q: For Cc1nn(Cc2ccc(C(=O)NCCC3CCCN3C)cc2)c(C)c1NC(=O)c1cc(C(F)(F)F)nc2ccc(Br)cc12 (centres unmarked) [Example 1216], which IC50 is on record?
A: 0.673 µM

Q: How did the IC50 turn out when Cc1nn(C(C)CCc2ccc(F)cc2)c(C)c1NC(=O)c1cc(C(N)=O)nc2ccccc12 (racemic) [Example 1379] was run?
A: 0.0394 µM

Q: For Cc1c(NC(=O)c2cc(C(N)=O)nc3c(F)cccc23)c(C(F)(F)F)nn1Cc1ccc(C#N)cc1 [Example 247, N^4-[1-(4-cyanobenzyl)-5-methyl-3-(trifluoromethyl)-1H-pyrazol-4-yl]-8-fluoroquinoline-2,4-dicarboxamide], which IC50 is on record?
A: 0.0049 µM

Q: COc1ccccc1Cn1nc(C(F)(F)F)c(NC(=O)c2cc(C(N)=O)nc3cc(F)c(Cl)cc23)c1C [Example 1491] was tested. Which IC50 did it give?
A: 0.0415 µM

Q: Which IC50 does the source give for Cc1c(NC(=O)c2cc(C(N)=O)nc3cccc(F)c23)c(C(F)(F)F)nn1Cc1ccc(OC(F)(F)F)cc1 [Example 1467] here?
A: 0.0076 µM

Q: Cc1nn(Cc2ccc(C(=O)NC[C@@H]3CCCO3)cc2)c(C)c1NC(=O)c1cc(C(F)(F)F)nc2ccc(Br)cc12 [Example 1164] was tested. Which IC50 did it give?
A: 0.167 µM

Q: For Cc1nn(Cc2ccc(S(C)(=O)=O)cc2)c(C)c1NC(=O)c1cc(C(N)=O)nc2ccc(Br)cc12 [Example 1486], which IC50 is on record?
A: 0.0096 µM

Q: Which IC50 does the source give for Cc1nn(Cc2ccc(C#N)cc2)c(C)c1NC(=O)c1cc(C(N)=O)nc2cc(F)c(Cl)cc12 [Example 212, 6-chloro-N^4-[1-(4-cyanobenzyl)-3,5-dimethyl-1H-pyrazol-4-yl]-7-fluoroquinoline-2,4-dicarboxamide] here?
A: 0.0006 µM

Q: For COc1cc(C(=O)Nc2c(C)nn(Cc3ccc(C#N)cn3)c2C)c2ccccc2n1 [Example 357, N-{1-[(5-cyanopyridin-2-yl)methyl]-3,5-dimethyl-1H-pyrazol-4-yl}-2-methoxyquinoline-4-carboxamide], which IC50 is on record?
A: 0.0288 µM

Q: COc1ccc(Cn2nc(C(F)(F)F)c(NC(=O)c3cc(C(N)=O)nc4ccccc34)c2C)cn1 [Example 280, N^4-{1-[(6-methoxypyridin-3-yl)methyl]-5-methyl-3-(trifluoromethyl)-1H-pyrazol-4-yl}quinoline-2,4-dicarboxamide] was tested. Which IC50 did it give?
A: 0.0011 µM

Q: For Cc1nn(Cc2ccccn2)c(C)c1NC(=O)c1cc(C(F)(F)F)nc2c(Cl)cc(Cl)cc12 [Example 66, 6,8-dichloro-N-[3,5-dimethyl-1-(pyridin-2-ylmethyl)-1H-pyrazol-4-yl]-2-(trifluoromethyl)quinoline-4-carboxamide], which IC50 is on record?
A: 0.135 µM

Q: How did the IC50 turn out when Cc1nn(Cc2cccc(C#N)n2)c(C)c1NC(=O)c1cc(C(N)=O)nc2cccc(F)c12 [Example 1709] was run?
A: 0.0281 µM

Q: Which IC50 does the source give for Cc1nn(Cc2cc(F)ccc2F)c(C)c1NC(=O)c1cc(C(F)(F)F)nc2c(Cl)cc(Cl)cc12 [Example 1295] here?
A: 8.15 µM

Q: Which IC50 does the source give for Cc1nn(Cc2c(F)cc(C#N)cc2F)c(C)c1NC(=O)c1cc(C(N)=O)nc2ccc(Br)cc12 [Example 394, 6-bromo-N^4-[1-(4-cyano-2,6-difluorobenzyl)-3,5-dimethyl-1H-pyrazol-4-yl]quinoline-2,4-dicarboxamide] here?
A: 0.0026 µM

Q: Which IC50 does the source give for Cc1cccc(Cn2nc(C)c(NC(=O)c3cc(C(N)=O)nc4cccc(F)c34)c2C)c1 [Example 1475] here?
A: 0.0084 µM

Q: With Cc1ccc2nc(C)cc(C(=O)Nc3c(C)nn(Cc4ccc(C#N)nc4)c3C)c2c1 [Example 201, N-{1-[(6-cyanopyridin-3-yl)methyl]-3,5-dimethyl-1H-pyrazol-4-yl}-2,6-dimethylquinoline-4-carboxamide] as the molecule, how does the IC50 read?
A: 0.557 µM

Q: Which IC50 does the source give for Cc1nn(Cc2ccc(C(=O)NC(C)(CO)CO)cc2)c(C)c1NC(=O)c1cc(C(F)(F)F)nc2ccc(Br)cc12 [Example 1096] here?
A: 0.0411 µM

Q: How did the IC50 turn out when COc1ccc(CCn2nc(C)c(NC(=O)c3cc(C(N)=O)nc4ccccc34)c2C)cc1 [Example 1353] was run?
A: 0.0389 µM

Q: Cc1nn(Cc2cccc(C(F)(F)F)c2)c(C)c1NC(=O)c1cc(C(F)(F)F)nc2c(Cl)cc(Cl)cc12 [Example 1306] was tested. Which IC50 did it give?
A: 11.1 µM
